Test results: patent publication EP3722296B1, “DIHYDRONAPHTHYRIDINES AND RELATED COMPOUNDS USEFUL AS KINASE INHIBITORS FOR THE TREATMENT OF PROLIFERATIVE DISEASES” (Deciphera Pharmaceuticals, LLC, priority 2012, dated 2013)

Columns and labels:
c-KIT V654A kinase = target: T1, c-KIT V654A kinase (Homo sapiens, UniProt P10721, V654A); assay: c-KIT V654A Kinase Assay; format: biochemical; settings: enzymatic assay, ATP 200 µM
T1 construct: residues T544-V976 with N-terminal GST fusion; purchased deCODE Biostructures
T1 sequence (P10721 544-976 V654A): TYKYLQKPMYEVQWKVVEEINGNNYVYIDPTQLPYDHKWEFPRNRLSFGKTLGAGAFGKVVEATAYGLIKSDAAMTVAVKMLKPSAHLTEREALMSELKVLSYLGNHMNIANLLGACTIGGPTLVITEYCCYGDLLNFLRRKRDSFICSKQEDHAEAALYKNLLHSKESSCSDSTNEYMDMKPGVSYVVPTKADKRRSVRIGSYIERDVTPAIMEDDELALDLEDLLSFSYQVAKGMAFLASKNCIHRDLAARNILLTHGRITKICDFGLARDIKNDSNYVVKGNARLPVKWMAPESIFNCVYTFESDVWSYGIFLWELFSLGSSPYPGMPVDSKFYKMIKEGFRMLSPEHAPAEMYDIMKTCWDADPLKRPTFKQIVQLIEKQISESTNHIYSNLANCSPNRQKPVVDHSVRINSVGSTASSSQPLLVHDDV
Outline: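 Kinase activity tracked by coupled NADH consumption, monitored continuously at 340 nm over 6 h at 30 °C after serially diluted compound was mixed in to start inhibition. Enzyme used was a GST-fused, N-terminally tagged cKIT T544–V976 construct with a TEV cleavage site.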

c-KIT D816H kinase = target: T2, c-KIT D816H kinase (Homo sapiens, UniProt P10721, D816H); assay: c-KIT D816H Kinase Assay; format: biochemical; settings: enzymatic assay, ATP 200 µM
T2 construct: The construct contains residues T544-V976 of cKit; GST (N); TEV cleavage site (internal); purchased deCODE Biostructures
T2 sequence (P10721 544-976 D816H): as the sequence (P10721 544-976 V654A) above, with A111V, D273H counted along it
Outline: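 Mutant cKit enzyme, expressed as a GST-fusion construct carrying an N-terminal tag and TEV site, was mixed with serially diluted compound to start reactions. Activity tracked via NADH consumption, read continuously at 340 nm over 6 hours at 30 °C.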

c-KIT D816V kinase = target: T3, c-KIT D816V kinase (Homo sapiens, UniProt P10721, D816V); assay: c-KIT D816V kinase Assay; format: biochemical; settings: enzymatic assay, ATP 200 uM
T3 construct: residues T544-V976 with N-terminal GST fusion; purchased deCODE Biostructures
T3 sequence (P10721 544-976 D816V): as the sequence (P10721 544-976 V654A) above, with A111V, D273V counted along it
Outline: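 Coupled assay in which NADH oxidation was tracked as decreasing absorbance at 340 nm, continuously for 5 hours at 30 °C after adding serially diluted compound. Enzyme: cKit residues T544-V976 with N-terminal tag, GST fusion and TEV cleavage site.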

c-KIT T670I kinase = target: T4, c-KIT T670I kinase (Homo sapiens, UniProt P10721, T670I); assay: c-KIT T670I kinase assay; format: biochemical; settings: enzymatic assay
T4 construct: The construct contains residues T544-V976 of cKit; GST (N); TEV cleavage site (internal); purchased deCODE Biostructures
T4 sequence (P10721 544-976 T670I): as the sequence (P10721 544-976 V654A) above, with A111V, T127I counted along it
Outline: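 Enzyme: GST-fused, N-terminally tagged cKit bearing T670I, with TEV cleavage site. Reaction started by mixing compound dilutions with reaction mix; activity read continuously over 5 h at 30 °C as loss of 340 nm absorbance from NADH consumption.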

Phospho-KIT (Tyr719) [1] = assay: GIST48 KIT Western Blot; format: cell-based; settings: GIST48 cells, 4 hours, serum-free medium; read-out: pKIT suppression by western blot analysi GIST48
Outline: (§1)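 Phospho-KIT (Tyr719) was immunoblotted on PVDF and imaged in fluorescence mode after ECL Plus, with stripping and reprobing for total KIT. IC50 values were derived from the blot signals.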

Phospho-KIT (Tyr719) [2] = target: T5, Phospho-KIT (Tyr719) (Homo sapiens, UniProt P10721, K642E); assay: GIST882 KIT Western Blot; format: cell-based; settings: GIST882 cells, 4 hours, serum-free medium; read-out: pKIT suppression by western blot analysi GIST 882
T5 construct: endogenous in cells; host or cells: GIST882
T5 sequence (P10721 26-976 K642E): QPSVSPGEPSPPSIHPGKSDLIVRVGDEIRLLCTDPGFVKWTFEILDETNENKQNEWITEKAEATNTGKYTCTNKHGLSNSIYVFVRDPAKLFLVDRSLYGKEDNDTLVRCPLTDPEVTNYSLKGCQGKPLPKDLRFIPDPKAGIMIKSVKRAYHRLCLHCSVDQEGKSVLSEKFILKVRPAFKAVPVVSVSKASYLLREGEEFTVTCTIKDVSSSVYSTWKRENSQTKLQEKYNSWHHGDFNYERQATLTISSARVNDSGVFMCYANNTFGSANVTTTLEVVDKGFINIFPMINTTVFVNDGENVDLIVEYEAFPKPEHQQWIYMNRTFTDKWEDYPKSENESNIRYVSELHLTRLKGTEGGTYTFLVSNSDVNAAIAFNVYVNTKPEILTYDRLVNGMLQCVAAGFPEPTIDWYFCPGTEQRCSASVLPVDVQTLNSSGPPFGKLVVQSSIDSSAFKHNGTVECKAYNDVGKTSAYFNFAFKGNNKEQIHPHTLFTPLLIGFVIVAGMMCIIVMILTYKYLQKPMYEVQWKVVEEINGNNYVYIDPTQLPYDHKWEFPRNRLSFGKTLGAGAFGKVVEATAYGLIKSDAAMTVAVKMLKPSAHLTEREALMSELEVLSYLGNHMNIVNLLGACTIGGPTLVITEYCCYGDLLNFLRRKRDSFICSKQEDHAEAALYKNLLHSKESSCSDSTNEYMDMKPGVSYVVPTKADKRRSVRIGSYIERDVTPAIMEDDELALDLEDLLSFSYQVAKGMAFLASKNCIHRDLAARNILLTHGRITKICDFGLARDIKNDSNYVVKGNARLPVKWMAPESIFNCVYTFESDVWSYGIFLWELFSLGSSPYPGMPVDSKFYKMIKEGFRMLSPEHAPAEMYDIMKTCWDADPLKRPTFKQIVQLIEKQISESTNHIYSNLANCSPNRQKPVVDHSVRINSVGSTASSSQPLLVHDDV
Outline: as §1

c-KIT kinase = c-KIT kinase (Homo sapiens, UniProt P10721); assay: c-KIT kinase Assay; format: biochemical; design: cKIT residues T544-V976; GST (N); TEV cleavage site (internal); purchased deCODE Biostructures; settings: enzymatic assay, ATP 200 µM; read-out: KIT (wt) IC50
Sequence of c-KIT kinase (P10721 544-976): as the sequence (P10721 544-976 V654A) above, with A111V counted along it
Outline: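 This continuous spectrophotometric assay tracked c-KIT kinase turnover through NADH consumption at 340 nm, recorded for 2 hours at 30 °C. The enzyme construct from deCODE Biostructures carried an N-terminal tag, a GST-fusion sequence and a TEV cleavage site. Percent inhibition came from reaction rates over 0 to 1 h relative to a no-compound control, and IC50 values were derived with GraphPad Prism.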

Structure (SMILES) | IC50 (c-KIT V654A kinase) [µM] | IC50 (c-KIT D816H kinase) [µM] | IC50 (c-KIT D816V kinase) [µM] | IC50 (c-KIT T670I kinase) [µM] | IC50 (Phospho-KIT (Tyr719) [1]) [µM] | IC50 (Phospho-KIT (Tyr719) [2]) [µM] | IC50 (c-KIT kinase) [µM]
CCn1c(=O)c(-c2cc(NC(=O)Nc3ccccc3)c(F)cc2Cl)cc2cnc(NC(=O)N3CC(O)C3)cc21 [Example 81, N-(3-(2-chloro-4-fluoro-5-(3-phenylureido)phenyl)-1-ethyl-2-oxo-1,2-dihydro-1,6-naphthyridin-7-yl)-3-hydroxyazetidine-1-carboxamide] | 0.01 to 0.1 | < 0.01 | 0.01 to 0.1 | 0.01 to 0.1 | 0.01 to 0.1 | 0.01 to 0.1 | < 0.01
CCn1c(=O)c(-c2cc(NC(=O)Nc3ccc(F)c(CN4CCN(C)CC4)c3)c(F)cc2Cl)cc2cnc(NC)cc21 [Example 87, 1-(4-chloro-5-(1-ethyl-7-(methylamino)-2-oxo-1,2-dihydro-1,6-naphthyridin-3-yl)-2-fluorophenyl)-3-(4-fluoro-3-((4-methylpiperazin-1-yl)methyl)phenyl)urea] | 0.1 to 1 | 0.01 to 0.1 | 0.1 to 1 | 0.01 to 0.1 | 0.01 to 0.1 | 0.1 to 1 | < 0.01
CCn1c(=O)c(-c2cc(NC(=O)Nc3ccccc3)c(F)cc2C)cc2cnc(NC(=O)N(C)C)cc21 [Example 101, 3-(1-ethyl-3-(4-fluoro-2-methyl-5-(3-phenylureido)phenyl)-2-oxo-1,2-dihydro-1,6-naphthyridin-7-yl)-1,1-dimethylurea] | 0.01 to 0.1 | 0.01 to 0.1 | 0.01 to 0.1 | 0.01 to 0.1 | > 1 | 0.1 to 1 | 0.01 to 0.1

Second part, the molecule after the results:

IC50 (c-KIT V654A kinase) [µM] | IC50 (c-KIT D816H kinase) [µM] | IC50 (c-KIT D816V kinase) [µM] | IC50 (c-KIT T670I kinase) [µM] | IC50 (Phospho-KIT (Tyr719) [1]) [µM] | IC50 (Phospho-KIT (Tyr719) [2]) [µM] | IC50 (c-KIT kinase) [µM] | Structure (SMILES)
0.01 to 0.1 | 0.01 to 0.1 | < 0.01 | < 0.01 | 0.01 to 0.1 | 0.01 to 0.1 | < 0.01 | CCn1c(=O)c(-c2cc(NC(=O)Nc3ccccc3)c(F)cc2Cl)cc2cnc(NC(=O)N(C)C)cc21 [Example 70, 3-(3-(2-chloro-4-fluoro-5-(3-phenylureido)phenyl)-1-ethyl-2-oxo-1,2-dihydro-1,6-naphthyridin-7-yl)-1,1-dimethylurea]
0.01 to 0.1 | 0.01 to 0.1 | < 0.01 | 0.01 to 0.1 | 0.01 to 0.1 | 0.01 to 0.1 | 0.01 to 0.1 | CCn1c(=O)c(-c2cc(NC(=O)Nc3ccccc3)c(F)cc2Cl)cc2cnc(NC(=O)OC)cc21 [Example 73, methyl (3-(2-chloro-4-fluoro-5-(3-phenylureido)phenyl)-1-ethyl-2-oxo-1,2-dihydro-1,6-naphthyridin-7-yl)carbamate]
0.01 to 0.1 | 0.01 to 0.1 | < 0.01 | 0.1 to 1 | 0.01 to 0.1 | 0.01 to 0.1 | < 0.01 | CNc1cc2c(cn1)cc(-c1cc(NC(=O)Nc3cccc(F)c3)c(F)cc1Cl)c(=O)n2C(C)C [Example 77, 1-(4-chloro-2-fluoro-5-(1-isopropyl-7-(methylamino)-2-oxo-1,2-dihydro-1,6-naphthyridin-3-yl)phenyl)-3-(3-fluorophenyl)urea]
